These results are taken from ChEMBL document CHEMBL4387706, “Discovery of Novel Spiroindoline Derivatives as Selective Tankyrase Inhibitors” (J Med Chem, 2019).

For series [1], the target named is Tankyrase 1/2 (Homo sapiens) (UniProt Q9H2K2+O95271). In words: Inhibition of TNKS/TNKS2-mediated beta-catenin signaling in human COLO320DM cells assessed as down regulation of TCF7 mRNA expression at 0.033 to 1 uM measured after 48 hrs by RT-PCR analysis. Type of series: cell-based.
A short description of series [2]: Toxicity in mouse xenografted with human COLO320DM cells assessed as body weight loss at 150 mg/kg, ip administered twice daily for 11 days. The conditions noted are these: in vivo, 264 h. Type of series: organism-based. On the technique in general: Xenograft models place foreign cells or tissue in a host animal.
Series [3] addresses Adenosine receptor A2a (Homo sapiens) (UniProt P29274). In words: Displacement of [3H]CGS-21680 from full-length recombinant human A2A receptor expressed in HEK293 cells at 10 uM measured after 90 mins by scintillation counting method relative to control. Type of series: cell-based. (In general: Displacement assays read how much labelled ligand stays bound in the presence of the test substance.)

Series [4] has as its target Alpha-1A adrenergic receptor (Rattus norvegicus) (UniProt P43140). The series is described as follows: Displacement of [3H]prazosin from alpha1A receptor in Wistar rat submaxillary gland membranes at 10 uM measured after 60 mins by scintillation counting method relative to control. Type of series: cell membranes.
For series [5], the target named is Androgen receptor (Homo sapiens) (UniProt P10275). In words: Displacement of [3H]Methyltrienolone from human LNCAP cells-derived androgen receptor at 10 uM measured after 20 hrs by scintillation counting method relative to control. Type of series: cell-based.
A short description of series [6]: Toxicity in mouse xenografted with human COLO320DM cells assessed as body weight loss at 300 mg/kg, ip administered twice daily for 11 days. Type of series: organism-based. The conditions noted are these: in vivo, 264 h.
Series [7] deals with Delta-type opioid receptor (Homo sapiens) (UniProt P41143). The series is described as follows: Displacement of [3H]naltrindole from full-length recombinant human DOR expressed in HEK293 cells at 10 uM measured after 60 mins by scintillation counting method relative to control. Type of series: cell-based.
In another series the target is MAOA (Homo sapiens, UniProt P21397). In words: Inhibition of full-length recombinant human MAOA expressed in insect cells at 10 uM using kynuramine as substrate preincubated for 15 mins followed by substrate addition and measured after 60 mins by spectrofluorimetric method relative to control. The conditions noted are these: probe kynuramine.
Series [8] has as its target Mu-type opioid receptor (Homo sapiens) (UniProt P35372). The series is described as follows: Displacement of [3H]diprenorphine from full-length recombinant human MOR expressed in CHOK1 cells at 10 uM measured after 60 mins by scintillation counting method relative to control. Type of series: cell-based.
Series [9] has as its target Tyrosine-protein kinase Lck (Homo sapiens) (UniProt P06239). In words: Inhibition of full-length recombinant human LCK expressed in insect cells at 10 uM using poly(Glu:Tyr) as substrate preincubated for 15 mins followed by substrate addition and measured after 30 mins in presence of [gamma32P]ATP by scintillation counting method relative to control.
Series [10] deals with Prostaglandin G/H synthase 2 (Homo sapiens) (UniProt P35354). In words: Inhibition of human recombinant COX2 expressed in Sf21 cells at 10 uM using arachidonic acid as substrate preincubated for 15 mins followed by substrate addition and measured after 3 mins by ampliflu red dye-based spectrofluorimetric method relative to control.
The species named for another series is Homo sapiens. In words: Effect on hippo signaling protein in human COLO320DM cells assessed as change in AMOTL2 expression at 0.033 to 1 uM measured after 48 hrs by RT-PCR analysis. Type of series: cell-based.
The test system of a further series is RKO. The series is described as follows: Antiproliferative activity against human RKO cells assessed reduction in cell viability at 0.3 uM measured after 5 days by MTT assay. Type of series: functional, cell-based.
Series [11] concerns the target Acetylcholinesterase (Homo sapiens) (UniProt P22303). In words: Inhibition of human recombinant full-length ACES expressed in HEK293 cells at 10 uM using acetylthiocholine iodide as substrate preincubated for 15 mins followed by substrate addition and measured after 20 mins by DTNB reagent based spectrophotometric method relative to control.
The target of series [12] is Vasopressin V1a receptor (Homo sapiens) (UniProt P37288). In words: Displacement of [125I]Phenylacetyl-D-Tyr(Me)-Phe-Gln-Asn-Arg-Pro-Arg-Tyr-NH2 from full-length recombinant human V1A receptor expressed in HEK293 cells at 10 uM measured after 120 mins by scintillation counting method relative to control. Type of series: cell-based.
The target in series [13] is Sodium-dependent noradrenaline transporter (Homo sapiens) (UniProt P23975). The series is described as follows: Displacement of [125I]RTI-55 from full-length recombinant human NET receptor expressed in MDCK cells at 10 uM measured after 3 hrs by scintillation counting method relative to control. Type of series: cell-based.
The next series is filed under the species Rattus norvegicus. In words: Displacement of [125I]a-dendrotoxin from voltage-gated potassium channel in Wistar rat cerebral cortex at 10 uM measured after 60 mins by scintillation counting method relative to control.
The nature of series [14]: AUC (infinity) in ICR mouse at 50 mg/kg, ip. Type of series: ADME, organism-based. To be noted: in vivo. On the set-up: dose 50 mg/kg, route intraperitoneal, time infinity.
For series [15], the target named is Prostaglandin G/H synthase 1 (Homo sapiens) (UniProt P23219). The series is described as follows: Inhibition of human recombinant COX1 expressed in baculovirus infected Sf9 cells at 10 uM using arachidonic acid as substrate preincubated for 15 mins followed by substrate addition and measured after 3 mins by ampliflu red dye-based spectrofluorimetric method relative to control.

Series [16] deals with Histamine H2 receptor (Homo sapiens) (UniProt P25021). The series is described as follows: Displacement of [125I]aminopotentidine from full-length recombinant human H2 receptor expressed in CHOK1 cells at 10 uM measured after 120 mins by scintillation counting method relative to control. Type of series: cell-based.
Series [17] deals with Muscarinic acetylcholine receptor M2 (Homo sapiens) (UniProt P08172). The series is described as follows: Displacement of [3H]N-Methylscopolamine from full-length recombinant human M2 receptor expressed in CHOK1 cells at 10 uM measured after 120 mins by scintillation counting method relative to control. Type of series: cell-based.
Series [18] deals with 5-hydroxytryptamine receptor 1B (Homo sapiens) (UniProt P28222). The series is described as follows: Displacement of [3H]GR125743 from full-length recombinant human 5HT1B receptor expressed in human Chem1 cells at 10 uM measured after 90 mins by scintillation counting method relative to control. Type of series: cell-based.
Series [19] concerns the target 3',5'-cyclic-AMP phosphodiesterase 4D (Homo sapiens) (UniProt Q08499). The series is described as follows: Inhibition of full-length recombinant human PDE4D2 expressed in Sf9 insect cells at 10 uM using FAM-cAMP as substrate preincubated for 15 mins followed by substrate addition and measured after 15 mins by spectrofluorimetric method relative to control.
In series [20] the target is Alpha-2A adrenergic receptor (Homo sapiens) (UniProt P08913). In words: Displacement of [3H]rauwolscine from full-length recombinant human alpha2A receptor expressed in CHOK1 cells at 10 uM measured after 60 mins by scintillation counting method relative to control. Type of series: cell-based.
In series [21] the target is Glutamate NMDA receptor (Rattus norvegicus) (UniProt P35439+Q00959+Q00960+Q00961+Q62645+Q8VHN2+Q9R1M7). In words: Displacement of [3H]CGP-39653 from NMDA receptor in Wistar rat cerebral cortex at 10 uM measured after 20 mins by scintillation counting method relative to control.
In series [22] the target is Glucocorticoid receptor (Homo sapiens) (UniProt P04150). In words: Displacement of [3H]dexamethasone from full-length recombinant human glucocorticoid receptor expressed in insect cells at 10 uM measured after 24 hrs by scintillation counting method relative to control.
A further series deals with COLO 320DM. In words: Antiproliferative activity against human COLO320DM cells assessed inhibition of cell growth measured after 5 days by MTT assay. Type of series: functional. To be noted: 120 h.

The term inhibition denotes the share of the control response that was lost under treatment. As usually defined, the AUC(0-inf) is the area under the concentration-time curve extrapolated to infinity. A high value points to high exposure. What is called GI50 is the concentration that inhibits growth by half. A higher GI50 goes with less potent growth inhibition.

Calls of active or inactive are those of the source. The rule behind the calls is not given here.

Sequence of MAOA (P21397 whole entry): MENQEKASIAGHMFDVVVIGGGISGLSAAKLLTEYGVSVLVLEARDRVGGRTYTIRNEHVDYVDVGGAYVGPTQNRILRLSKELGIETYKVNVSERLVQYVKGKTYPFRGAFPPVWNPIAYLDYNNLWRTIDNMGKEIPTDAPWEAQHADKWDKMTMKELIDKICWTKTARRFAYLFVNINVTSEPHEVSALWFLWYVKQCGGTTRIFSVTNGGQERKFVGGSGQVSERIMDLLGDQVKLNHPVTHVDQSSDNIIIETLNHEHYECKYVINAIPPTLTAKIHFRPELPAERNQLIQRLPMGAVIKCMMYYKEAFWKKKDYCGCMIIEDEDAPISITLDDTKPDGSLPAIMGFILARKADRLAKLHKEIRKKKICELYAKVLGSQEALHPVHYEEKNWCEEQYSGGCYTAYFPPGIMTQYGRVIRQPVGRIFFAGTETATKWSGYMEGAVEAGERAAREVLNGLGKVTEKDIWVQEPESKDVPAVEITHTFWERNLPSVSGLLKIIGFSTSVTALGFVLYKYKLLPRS
Sequence of Alpha-2A adrenergic receptor (Homo sapiens) (P08913 whole entry): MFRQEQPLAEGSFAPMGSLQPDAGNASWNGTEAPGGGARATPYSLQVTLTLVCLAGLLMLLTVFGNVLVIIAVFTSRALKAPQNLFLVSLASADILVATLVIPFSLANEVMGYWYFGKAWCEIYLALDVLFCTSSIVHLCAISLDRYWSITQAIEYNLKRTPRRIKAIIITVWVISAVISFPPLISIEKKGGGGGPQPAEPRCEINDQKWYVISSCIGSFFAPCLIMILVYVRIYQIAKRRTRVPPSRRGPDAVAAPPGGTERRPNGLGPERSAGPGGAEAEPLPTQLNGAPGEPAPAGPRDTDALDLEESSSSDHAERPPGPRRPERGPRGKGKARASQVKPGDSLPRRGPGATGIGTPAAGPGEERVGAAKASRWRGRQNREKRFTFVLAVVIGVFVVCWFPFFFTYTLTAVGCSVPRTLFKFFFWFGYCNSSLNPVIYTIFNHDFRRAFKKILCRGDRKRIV
Sequence of Tankyrase 1/2 (Homo sapiens) (O95271 whole entry, looked up): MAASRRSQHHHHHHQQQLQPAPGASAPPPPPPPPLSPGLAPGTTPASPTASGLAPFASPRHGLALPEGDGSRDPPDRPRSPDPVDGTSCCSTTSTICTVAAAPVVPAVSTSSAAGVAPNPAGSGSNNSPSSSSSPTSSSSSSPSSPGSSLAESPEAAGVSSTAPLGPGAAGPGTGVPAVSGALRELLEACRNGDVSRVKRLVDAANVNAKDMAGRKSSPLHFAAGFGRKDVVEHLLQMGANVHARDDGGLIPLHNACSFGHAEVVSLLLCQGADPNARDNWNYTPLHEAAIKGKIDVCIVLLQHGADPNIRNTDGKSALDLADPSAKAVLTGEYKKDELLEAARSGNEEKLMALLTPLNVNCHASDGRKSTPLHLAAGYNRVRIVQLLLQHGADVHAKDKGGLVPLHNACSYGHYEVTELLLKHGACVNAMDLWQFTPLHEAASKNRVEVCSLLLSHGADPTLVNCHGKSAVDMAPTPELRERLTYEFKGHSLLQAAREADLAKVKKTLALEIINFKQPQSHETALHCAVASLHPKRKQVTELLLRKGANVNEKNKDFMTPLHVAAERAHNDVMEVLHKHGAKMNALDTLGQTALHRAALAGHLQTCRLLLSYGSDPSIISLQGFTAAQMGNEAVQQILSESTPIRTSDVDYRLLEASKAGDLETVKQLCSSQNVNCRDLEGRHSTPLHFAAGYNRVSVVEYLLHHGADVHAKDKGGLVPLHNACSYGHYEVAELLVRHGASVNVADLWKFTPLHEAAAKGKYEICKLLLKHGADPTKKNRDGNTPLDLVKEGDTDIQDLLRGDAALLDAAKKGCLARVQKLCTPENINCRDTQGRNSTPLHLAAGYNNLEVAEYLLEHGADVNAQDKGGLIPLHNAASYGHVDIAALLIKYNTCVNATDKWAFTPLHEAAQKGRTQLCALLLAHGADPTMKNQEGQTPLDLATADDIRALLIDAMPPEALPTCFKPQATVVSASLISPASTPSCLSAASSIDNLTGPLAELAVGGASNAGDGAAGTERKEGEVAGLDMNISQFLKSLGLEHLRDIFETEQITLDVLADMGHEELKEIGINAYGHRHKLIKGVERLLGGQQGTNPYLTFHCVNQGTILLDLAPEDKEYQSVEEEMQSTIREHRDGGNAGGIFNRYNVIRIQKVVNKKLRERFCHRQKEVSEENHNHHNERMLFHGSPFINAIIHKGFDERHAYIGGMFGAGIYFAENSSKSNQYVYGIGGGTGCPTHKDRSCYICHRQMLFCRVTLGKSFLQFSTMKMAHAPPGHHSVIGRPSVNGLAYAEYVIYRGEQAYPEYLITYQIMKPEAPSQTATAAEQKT
Sequence of Tankyrase 1/2 (Homo sapiens) (Q9H2K2 whole entry, looked up): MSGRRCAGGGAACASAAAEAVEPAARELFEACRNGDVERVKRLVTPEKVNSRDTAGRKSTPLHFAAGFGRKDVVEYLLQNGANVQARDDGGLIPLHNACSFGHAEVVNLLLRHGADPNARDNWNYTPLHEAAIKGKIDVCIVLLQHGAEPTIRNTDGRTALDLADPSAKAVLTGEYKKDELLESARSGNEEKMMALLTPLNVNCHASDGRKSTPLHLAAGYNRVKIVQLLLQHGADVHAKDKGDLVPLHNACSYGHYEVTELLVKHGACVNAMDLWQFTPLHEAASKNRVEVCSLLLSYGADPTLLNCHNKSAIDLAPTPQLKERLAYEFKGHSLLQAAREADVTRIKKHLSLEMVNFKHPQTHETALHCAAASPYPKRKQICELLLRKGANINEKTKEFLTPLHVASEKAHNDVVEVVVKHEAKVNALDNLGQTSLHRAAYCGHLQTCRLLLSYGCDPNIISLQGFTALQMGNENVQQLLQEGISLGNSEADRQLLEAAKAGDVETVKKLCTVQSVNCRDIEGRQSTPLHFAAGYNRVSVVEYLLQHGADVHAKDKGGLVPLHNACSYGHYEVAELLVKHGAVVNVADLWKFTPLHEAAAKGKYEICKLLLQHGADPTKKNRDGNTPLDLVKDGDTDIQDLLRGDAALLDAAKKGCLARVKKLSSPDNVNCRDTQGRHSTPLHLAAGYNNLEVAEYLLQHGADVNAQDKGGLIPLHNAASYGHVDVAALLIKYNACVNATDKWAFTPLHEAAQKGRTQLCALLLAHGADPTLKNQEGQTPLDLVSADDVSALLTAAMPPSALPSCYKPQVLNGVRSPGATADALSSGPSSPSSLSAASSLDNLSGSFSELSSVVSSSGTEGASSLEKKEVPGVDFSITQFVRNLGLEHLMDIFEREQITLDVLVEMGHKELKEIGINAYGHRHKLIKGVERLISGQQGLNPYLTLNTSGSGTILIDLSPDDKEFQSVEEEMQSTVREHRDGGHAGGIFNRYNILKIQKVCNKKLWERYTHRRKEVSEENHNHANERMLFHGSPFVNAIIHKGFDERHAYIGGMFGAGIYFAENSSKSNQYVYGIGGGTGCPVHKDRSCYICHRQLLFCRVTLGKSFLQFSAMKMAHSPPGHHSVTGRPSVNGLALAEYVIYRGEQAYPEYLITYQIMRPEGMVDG
Sequence of Vasopressin V1a receptor (Homo sapiens) (P37288 whole entry, looked up): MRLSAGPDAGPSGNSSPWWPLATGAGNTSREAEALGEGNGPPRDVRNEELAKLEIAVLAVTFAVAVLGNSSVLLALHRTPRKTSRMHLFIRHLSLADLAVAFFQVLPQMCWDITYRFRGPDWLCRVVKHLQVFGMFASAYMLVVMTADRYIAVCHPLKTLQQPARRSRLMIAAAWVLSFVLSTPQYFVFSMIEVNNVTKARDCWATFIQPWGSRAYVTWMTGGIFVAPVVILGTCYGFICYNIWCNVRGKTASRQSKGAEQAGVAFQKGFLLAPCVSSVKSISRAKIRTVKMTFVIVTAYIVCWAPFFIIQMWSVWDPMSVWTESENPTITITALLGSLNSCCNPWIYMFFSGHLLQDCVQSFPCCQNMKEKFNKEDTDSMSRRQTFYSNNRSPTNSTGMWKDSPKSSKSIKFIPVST
Sequence of Delta-type opioid receptor (Homo sapiens) (P41143 whole entry): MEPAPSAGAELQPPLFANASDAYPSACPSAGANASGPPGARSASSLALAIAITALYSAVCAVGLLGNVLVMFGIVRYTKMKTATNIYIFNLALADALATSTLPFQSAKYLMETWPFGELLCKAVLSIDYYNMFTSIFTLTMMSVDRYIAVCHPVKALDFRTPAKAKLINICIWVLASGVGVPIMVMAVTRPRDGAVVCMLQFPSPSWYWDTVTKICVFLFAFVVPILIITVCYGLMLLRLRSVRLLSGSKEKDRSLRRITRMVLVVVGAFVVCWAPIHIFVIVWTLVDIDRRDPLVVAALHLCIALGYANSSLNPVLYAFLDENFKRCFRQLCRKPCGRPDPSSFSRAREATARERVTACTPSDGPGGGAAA
Sequence of Sodium-dependent noradrenaline transporter (Homo sapiens) (P23975 whole entry): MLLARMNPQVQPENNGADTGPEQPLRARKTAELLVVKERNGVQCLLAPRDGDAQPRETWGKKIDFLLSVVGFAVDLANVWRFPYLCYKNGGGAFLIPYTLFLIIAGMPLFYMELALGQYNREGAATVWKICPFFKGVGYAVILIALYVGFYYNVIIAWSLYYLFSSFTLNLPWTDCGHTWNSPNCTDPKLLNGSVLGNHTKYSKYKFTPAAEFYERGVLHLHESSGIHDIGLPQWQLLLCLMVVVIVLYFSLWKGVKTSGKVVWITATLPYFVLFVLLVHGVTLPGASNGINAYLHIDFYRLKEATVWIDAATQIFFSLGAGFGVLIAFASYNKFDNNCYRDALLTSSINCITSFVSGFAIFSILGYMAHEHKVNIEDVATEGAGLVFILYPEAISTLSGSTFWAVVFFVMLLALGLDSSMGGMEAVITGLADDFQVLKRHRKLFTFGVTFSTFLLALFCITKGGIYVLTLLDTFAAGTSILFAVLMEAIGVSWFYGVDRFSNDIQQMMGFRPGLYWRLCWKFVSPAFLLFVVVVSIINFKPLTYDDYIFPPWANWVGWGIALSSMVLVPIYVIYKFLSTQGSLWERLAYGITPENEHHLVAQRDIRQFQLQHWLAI

Turning to `O=c1[nH]c(N2CCC3(CC2)CN(CCO)c2cc(F)cc(F)c23)nc2c1CCCC2`, in series [1], the inhibition result was “Active”. Further, the Activity result in series [2] is reported as “Non-Toxic”; in series [6], “Toxic”. Besides, the inhibition in series [3], in series [4], in [5], in series [7], in [8] and in series [9] was more than 20% each time. Also, the inhibition (in [10]; in series [11]; in [12]; in series [13]; in the series filed under Rattus norvegicus; in series [15]) was more than 20% throughout. The inhibition in [16], in series [17], in series [18], in series [19], in series [20] and in series [21] was more than 20% each time. Besides, in series [22], the inhibition was more than 20%. Further, the inhibition at 1 h, 10 µM at MAOA is more than 20%. The result in the series listed under Homo sapiens was inactive. Further, the outcome in the series with RKO was Active. This molecule also had an AUC(0-inf) in [14] of 555 µM·h.

In turn, `COc1ccccc1N1CCN(c2nc3c(c(=O)[nH]2)CCCC3)CC1` returned a concentration for 50% growth inhibition (GI50) in the series with COLO 320DM of 1820 nM.
